Test results: patent US9247759B2, “Identification of human T2R receptors that respond to bitter compounds that elicit the bitter taste in compositions, and the use thereof in assays to identify compounds that inhibit (block) bitter taste in compositions and use thereof” (SENOMYX, INC., priority 2007, dated 2016)

Key:
hT2R54 = experiment: hT2R panel inhibition, transient HEK293 G16g44, agonist Ranitidine 5 mM; type: cell-based, human; conditions: compound at 25 μM; receptor activated to EC80 with the corresponding agonist
Method: (§1) Specifically, in order to evaluate the inhibitory selectivity of the Compound C compound, this compound was tested against 22 human T2Rs which were deorphaned by Senomyx. These receptors and the bitter ligands that activate these human T2Rs are reported in earlier patent applications which are incorporated by reference herein. These 22 human T2Rs are hT2R1, 3, 4, 5, 7, 8, 9, 10, 13, 14, 16, 44, 51, 54, 55, 61, 63, 64, 65, 67, 71 and 75. The amino acid and nucleic acid sequences of all of these T2Rs may be found in these earlier patent applications. These human T2Rs were each individually transiently transfected into HEK293 cells that stably express the promiscuous G protein G16g44 and functional assays were effected using these receptors as disclosed in these same patent applications. […] The ligands were used at EC80 concentration levels. The list of bitter ligands utilized and the tested ligand concentrations are contained in Table 5 of this example.
(§2) Relating to the foregoing, FIG. 5 contains experimental results wherein Compound C was tested with different agonist compounds. The inhibition activity is represented by the reduction of receptor activity in the presence of Compound C. […] These 13 hT2Rs are hT2R3, 7, 10, 14, 16, 44, 51, 55, 61, 63, 64, 65, and 71.

hT2R75 = hT2R75 (Homo sapiens (Human), UniProt P59540); experiment: hT2R panel inhibition, transient HEK293 G16g44, agonist Strychnine 1 μM; type: cell-based; conditions: HEK293, read-out: screening result against bitter receptor 75, compound at 25 μM; receptor activated to EC80 with the corresponding agonist
hT2R75, sequence (P59540 whole entry): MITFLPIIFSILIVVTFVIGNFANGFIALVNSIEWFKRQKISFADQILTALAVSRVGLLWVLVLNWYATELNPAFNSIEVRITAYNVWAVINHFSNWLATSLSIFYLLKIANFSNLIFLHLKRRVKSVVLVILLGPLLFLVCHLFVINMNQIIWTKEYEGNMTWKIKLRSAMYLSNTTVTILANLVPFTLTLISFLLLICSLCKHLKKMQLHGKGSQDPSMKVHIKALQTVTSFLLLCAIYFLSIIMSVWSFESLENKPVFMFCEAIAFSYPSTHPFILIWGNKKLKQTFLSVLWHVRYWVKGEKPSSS
Method: as §1, §2

hT2R55 = experiment: hT2R panel inhibition, transient HEK293 G16g44, agonist Cinchonine 150 μM; type: cell-based, human; conditions: compound at 25 μM; receptor activated to EC80 with the corresponding agonist
In short: (§3)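 Panel: 22 human T2Rs, individually transient in stable G16g44 cells. Stim: EC80 agonist. Output: % reduction of activity by test cpd.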

hT2R16 = hT2R16 (Homo sapiens (Human), UniProt Q9NYV7); experiment: hT2R panel inhibition, transient HEK293 G16g44, agonist Salicin 1 mM; type: cell-based; conditions: HEK293, compound at 25 μM; receptor activated to EC80 with the corresponding agonist; read-out: screening result against bitter receptor 16
hT2R16, sequence (Q9NYV7 whole entry): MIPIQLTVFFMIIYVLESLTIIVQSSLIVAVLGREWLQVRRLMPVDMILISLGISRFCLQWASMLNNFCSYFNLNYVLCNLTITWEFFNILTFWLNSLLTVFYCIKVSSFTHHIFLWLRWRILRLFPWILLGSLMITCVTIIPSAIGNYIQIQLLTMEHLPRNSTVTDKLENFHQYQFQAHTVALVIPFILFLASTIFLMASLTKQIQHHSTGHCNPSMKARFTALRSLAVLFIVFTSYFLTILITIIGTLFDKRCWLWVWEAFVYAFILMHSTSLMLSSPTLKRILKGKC
In short: as §3

hT2R71 = hT2R71 (Homo sapiens (Human), UniProt P59536); experiment: hT2R panel inhibition, transient HEK293 G16g44, agonist Picric Acid 10 μM; type: cell-based; conditions: HEK293, compound at 25 μM; receptor activated to EC80 with the corresponding agonist; read-out: screening result against bitter receptor 71
hT2R71, sequence (P59536 whole entry): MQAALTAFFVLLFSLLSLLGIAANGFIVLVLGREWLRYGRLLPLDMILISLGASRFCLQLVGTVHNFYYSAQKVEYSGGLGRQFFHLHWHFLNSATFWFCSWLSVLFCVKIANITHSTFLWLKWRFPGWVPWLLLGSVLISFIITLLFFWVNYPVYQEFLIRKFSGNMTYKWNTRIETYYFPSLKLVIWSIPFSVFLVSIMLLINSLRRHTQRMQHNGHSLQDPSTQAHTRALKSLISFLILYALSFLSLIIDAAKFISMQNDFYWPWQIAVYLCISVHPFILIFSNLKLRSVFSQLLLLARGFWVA
In short: as §3

hT2R14 = hT2R14 (Homo sapiens (Human), UniProt Q9NYV8); experiment: hT2R panel inhibition, transient HEK293 G16g44, agonist Aristolochic Acid 2 μM; type: cell-based; conditions: HEK293, compound at 25 μM; receptor activated to EC80 with the corresponding agonist; read-out: screening result against bitter receptor 14
hT2R14, sequence (Q9NYV8 whole entry): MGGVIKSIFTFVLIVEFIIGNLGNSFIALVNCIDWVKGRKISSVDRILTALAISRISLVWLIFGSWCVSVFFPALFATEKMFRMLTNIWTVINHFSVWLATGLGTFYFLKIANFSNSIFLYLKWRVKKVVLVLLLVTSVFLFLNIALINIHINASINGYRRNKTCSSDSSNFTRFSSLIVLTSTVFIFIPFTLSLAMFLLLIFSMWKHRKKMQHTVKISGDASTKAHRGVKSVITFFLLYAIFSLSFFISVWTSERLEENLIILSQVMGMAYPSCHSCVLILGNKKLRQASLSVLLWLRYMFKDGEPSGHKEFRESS
In short: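 Agonist challenge was at EC80, with 0.5 mM andrographolide on hT2R8 and 2 μM aristolochic acid on hT2R14. Inhibition was measured in functional assays in HEK293 cells that stably carry the promiscuous G protein G16g44 and were transiently transfected with the individual receptor.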

hT2R10 = hT2R10 (Homo sapiens (Human), UniProt Q9NYW0); experiment: hT2R panel inhibition, transient HEK293 G16g44, agonist Strychnine 50 μM; type: cell-based; conditions: HEK293, read-out: screening result against bitter receptor 10, compound at 25 μM; receptor activated to EC80 with the corresponding agonist
hT2R10, sequence (Q9NYW0 whole entry): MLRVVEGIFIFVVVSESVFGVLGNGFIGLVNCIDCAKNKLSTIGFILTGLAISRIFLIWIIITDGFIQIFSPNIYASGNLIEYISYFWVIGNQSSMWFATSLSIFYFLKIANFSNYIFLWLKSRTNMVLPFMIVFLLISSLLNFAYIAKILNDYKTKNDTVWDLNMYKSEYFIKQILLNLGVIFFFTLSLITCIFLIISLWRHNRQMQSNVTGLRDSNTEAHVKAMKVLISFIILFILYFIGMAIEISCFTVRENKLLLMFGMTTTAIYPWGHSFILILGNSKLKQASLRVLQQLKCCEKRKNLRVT

hT2R5 = hT2R5 (Homo sapiens (Human), UniProt Q9NYW4); experiment: hT2R panel inhibition, transient HEK293 G16g44, agonist Picoline 10 mM; type: cell-based; conditions: HEK293, compound at 25 μM; receptor activated to EC80 with the corresponding agonist; read-out: screening result against bitter receptor 5
hT2R5, sequence (Q9NYW4 whole entry): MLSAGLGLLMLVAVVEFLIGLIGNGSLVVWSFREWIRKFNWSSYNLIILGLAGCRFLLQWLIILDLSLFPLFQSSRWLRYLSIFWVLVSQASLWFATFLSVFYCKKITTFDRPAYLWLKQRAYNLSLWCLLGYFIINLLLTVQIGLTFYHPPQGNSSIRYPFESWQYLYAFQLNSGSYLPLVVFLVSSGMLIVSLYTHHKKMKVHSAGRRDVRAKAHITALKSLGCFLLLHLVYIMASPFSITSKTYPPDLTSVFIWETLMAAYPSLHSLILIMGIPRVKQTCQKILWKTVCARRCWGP
In short: as §3

hT2R51 = hT2R51 (Homo sapiens (Human), UniProt P59533); experiment: hT2R panel inhibition, transient HEK293 G16g44, agonist Prop 2.5 μM; type: cell-based; conditions: HEK293, compound at 25 μM; receptor activated to EC80 with the corresponding agonist; read-out: screening result against bitter receptor 51
hT2R51, sequence (P59533 whole entry): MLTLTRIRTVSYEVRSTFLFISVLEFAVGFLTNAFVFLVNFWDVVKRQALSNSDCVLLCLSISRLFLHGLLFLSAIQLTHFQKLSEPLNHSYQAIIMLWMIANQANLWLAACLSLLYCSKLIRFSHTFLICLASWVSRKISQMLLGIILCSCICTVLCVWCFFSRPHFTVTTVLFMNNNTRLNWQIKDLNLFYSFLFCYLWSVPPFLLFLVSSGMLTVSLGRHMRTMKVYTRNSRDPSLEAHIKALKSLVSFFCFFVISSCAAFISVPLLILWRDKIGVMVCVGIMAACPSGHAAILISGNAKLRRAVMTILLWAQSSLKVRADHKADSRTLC
Method: as §1, §2

hT2R61 = hT2R61 (Homo sapiens (Human), UniProt P59537); experiment: hT2R panel inhibition, transient HEK293 G16g44, agonist Aristolochic Acid 25 nM; type: cell-based; conditions: HEK293, compound at 25 μM; receptor activated to EC80 with the corresponding agonist; read-out: screening result against bitter receptor 61
hT2R61, sequence (P59537 whole entry): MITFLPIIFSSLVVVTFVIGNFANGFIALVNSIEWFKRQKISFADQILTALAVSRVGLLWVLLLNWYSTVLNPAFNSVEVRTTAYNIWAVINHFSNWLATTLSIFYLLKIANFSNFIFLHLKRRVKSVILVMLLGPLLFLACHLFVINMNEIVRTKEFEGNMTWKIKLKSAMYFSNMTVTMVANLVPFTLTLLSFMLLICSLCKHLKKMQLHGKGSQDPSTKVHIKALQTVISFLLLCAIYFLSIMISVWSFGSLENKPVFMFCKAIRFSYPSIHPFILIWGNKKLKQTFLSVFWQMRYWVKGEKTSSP
In short: as §3

hT2R63 = experiment: hT2R panel inhibition, transient HEK293 G16g44, agonist Caffeine 1 mM or Andrographolide 100 μM; type: cell-based, human; conditions: compound at 25 μM; receptor activated to EC80 with the corresponding agonist
In short: as §3

hT2R67 = experiment: hT2R panel inhibition, transient HEK293 G16g44, agonist Andrographolide 5 μM; type: cell-based, human; conditions: compound at 25 μM; receptor activated to EC80 with the corresponding agonist
In short: as §3

hT2R7 = hT2R7 (Homo sapiens (Human), UniProt Q9NYW3); experiment: hT2R panel inhibition, transient HEK293 G16g44, agonist Chloroquine pH6.5 10 mM; type: cell-based; conditions: HEK293, compound at 25 μM; receptor activated to EC80 with the corresponding agonist; read-out: screening result against bitter receptor 7
hT2R7, sequence (Q9NYW3 whole entry): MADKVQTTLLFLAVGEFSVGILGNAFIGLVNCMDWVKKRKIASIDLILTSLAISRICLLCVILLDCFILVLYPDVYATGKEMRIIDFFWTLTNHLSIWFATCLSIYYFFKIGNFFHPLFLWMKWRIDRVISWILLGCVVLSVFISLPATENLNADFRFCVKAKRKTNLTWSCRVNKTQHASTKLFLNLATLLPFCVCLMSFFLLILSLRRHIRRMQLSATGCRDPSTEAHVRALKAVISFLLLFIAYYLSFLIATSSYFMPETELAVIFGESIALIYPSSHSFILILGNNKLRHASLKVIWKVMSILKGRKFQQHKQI
In short: as §3

hT2R3 = hT2R3 (Homo sapiens (Human), UniProt Q9NYW6); experiment: hT2R panel inhibition, transient HEK293 G16g44, agonist Chloroquine pH6.5 50 μM; type: cell-based; conditions: HEK293, compound at 25 μM; receptor activated to EC80 with the corresponding agonist; read-out: screening result against bitter receptor 3
hT2R3, sequence (Q9NYW6 whole entry): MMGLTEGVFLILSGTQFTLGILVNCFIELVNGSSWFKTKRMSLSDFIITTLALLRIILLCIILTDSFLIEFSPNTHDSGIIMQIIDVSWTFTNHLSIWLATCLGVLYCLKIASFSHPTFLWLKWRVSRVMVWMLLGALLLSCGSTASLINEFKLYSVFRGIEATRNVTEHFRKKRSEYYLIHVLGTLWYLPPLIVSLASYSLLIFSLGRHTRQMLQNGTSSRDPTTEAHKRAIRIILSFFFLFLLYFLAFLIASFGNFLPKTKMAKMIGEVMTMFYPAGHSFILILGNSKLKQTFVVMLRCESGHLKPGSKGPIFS
In short: as §3

hT2R65 = experiment: hT2R panel inhibition, transient HEK293 G16g44, agonist Oleuropein 1 mM; type: cell-based, human; conditions: compound at 25 μM; receptor activated to EC80 with the corresponding agonist
In short: as §3

hT2R64 = hT2R64 (Homo sapiens (Human), UniProt P59538); experiment: hT2R panel inhibition, transient HEK293 G16g44, agonist Aristolochic Acid 1 μM; type: cell-based; conditions: HEK293, compound at 25 μM; receptor activated to EC80 with the corresponding agonist; read-out: screening result against bitter receptor 64
hT2R64, sequence (P59538 whole entry): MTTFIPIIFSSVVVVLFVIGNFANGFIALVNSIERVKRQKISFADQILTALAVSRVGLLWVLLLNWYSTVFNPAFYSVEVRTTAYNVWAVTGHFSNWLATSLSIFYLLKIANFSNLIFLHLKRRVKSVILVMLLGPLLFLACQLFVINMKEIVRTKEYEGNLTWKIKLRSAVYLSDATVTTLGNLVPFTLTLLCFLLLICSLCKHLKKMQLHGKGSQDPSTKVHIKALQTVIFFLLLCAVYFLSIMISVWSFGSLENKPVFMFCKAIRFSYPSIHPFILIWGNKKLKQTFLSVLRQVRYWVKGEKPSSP
In short: as §3

hT2R44 = experiment: hT2R panel inhibition, transient HEK293 G16g44, agonist Denatonium 0.5 μM; type: cell-based, human; conditions: compound at 25 μM; receptor activated to EC80 with the corresponding agonist
In short: as §3

hT2R4 = hT2R4 (Homo sapiens (Human), UniProt Q9NYW5); experiment: hT2R panel inhibition, transient HEK293 G16g44, agonist Chloroquine pH6.5 5 mM; type: cell-based; conditions: HEK293, compound at 25 μM; receptor activated to EC80 with the corresponding agonist; class symbols; read-out: screening result against bitter receptor 4
hT2R4, sequence (Q9NYW5 whole entry): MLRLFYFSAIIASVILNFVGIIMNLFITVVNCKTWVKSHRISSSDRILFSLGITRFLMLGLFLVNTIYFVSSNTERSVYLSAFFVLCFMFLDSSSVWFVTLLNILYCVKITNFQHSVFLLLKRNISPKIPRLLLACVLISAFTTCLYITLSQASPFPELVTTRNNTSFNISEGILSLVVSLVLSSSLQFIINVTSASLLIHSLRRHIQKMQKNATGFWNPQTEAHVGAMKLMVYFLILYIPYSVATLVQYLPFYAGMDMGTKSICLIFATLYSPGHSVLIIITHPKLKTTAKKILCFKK
Method: as §1, §2

Compound	screening result against bitter receptor 54 (hT2R54)	inhibition at 25 µM (hT2R75) [%]	screening result against bitter receptor 55 (hT2R55)	inhibition at 25 µM (hT2R16) [%]	inhibition at 25 µM (hT2R71) [%]	inhibition at 25 µM (hT2R14) [%]	inhibition at 25 µM (hT2R10) [%]	inhibition at 25 µM (hT2R5) [%]	inhibition at 25 µM (hT2R51) [%]	inhibition at 25 µM (hT2R61) [%]	screening result against bitter receptor 63 (hT2R63)	screening result against bitter receptor 67 (hT2R67)	inhibition at 25 µM (hT2R7) [%]	inhibition at 25 µM (hT2R3) [%]	screening result against bitter receptor 65 (hT2R65)	inhibition at 25 µM (hT2R64) [%]	screening result against bitter receptor 44 (hT2R44)	inhibition at 25 µM (hT2R4) [%]
Cc1cccc(CN(Cc2ccccc2)S(=O)(=O)c2ccc(C(=O)O)cc2)c1 [Example 5-73, 4-(N-benzyl-N-(3-methylbenzyl)sulfamoyl)benzoic acid]	+++ (60% to 80% inhibition = +++)	20 to 40	++ (40% to 60% inhibition = ++)	20 to 40	40 to 60	> 80	40 to 60	20 to 40	> 80	60 to 80	++++ (80% or greater inhibition = ++++)	+ (20% to 40% inhibition = +)	20 to 40	40 to 60	++ (40% to 60% inhibition = ++)	20 to 40	–	–
O=C(O)c1ccc(S(=O)(=O)N(Cc2ccccc2)Cc2ccccc2Cl)cc1 [Example 5-83, 4-(N-benzyl-N-(2-chlorobenzyl)sulfamoyl)benzoic acid]	++ (40% to 60% inhibition = ++)	40 to 60	+++ (60% to 80% inhibition = +++)	40 to 60	20 to 40	> 80	40 to 60	20 to 40	20 to 40	> 80	+++ (60% to 80% inhibition = +++)	++ (40% to 60% inhibition = ++)	20 to 40	40 to 60	+++ (60% to 80% inhibition = +++)	20 to 40	+ (20% to 40% inhibition = +)	–
COc1ccccc1CN(Cc1ccccc1)S(=O)(=O)c1ccc(C(=O)O)cc1 [Example 5-71, 4-(N-benzyl-N-(2-methoxybenzyl)sulfamoyl)benzoic acid]	+++ (60% to 80% inhibition = +++)	20 to 40	++ (40% to 60% inhibition = ++)	20 to 40	40 to 60	> 80	20 to 40	20 to 40	40 to 60	> 80	++++ (80% or greater inhibition = ++++)	+ (20% to 40% inhibition = +)	20 to 40	20 to 40	++ (40% to 60% inhibition = ++)	20 to 40	–	–
COc1ccc(CN(Cc2ccccc2Cl)S(=O)(=O)c2ccc(C(=O)O)cc2)cc1 [Example 5-68, 4-(N-(2-chlorobenzyl)-N-(4-methoxybenzyl)sulfamoyl)benzoic acid]	+ (20% to 40% inhibition = +)	20 to 40	++++ (80% or greater inhibition = ++++)	20 to 40	60 to 80	> 80	20 to 40	40 to 60	20 to 40	60 to 80	++++ (80% or greater inhibition = ++++)	+ (20% to 40% inhibition = +)	20 to 40	20 to 40	+ (20% to 40% inhibition = +)	60 to 80	++ (40% to 60% inhibition = ++)	–
COc1ccc(CN(Cc2ccccc2OC)S(=O)(=O)c2ccc(C(=O)O)cc2)cc1 [Example 5-58, 4-(N-(2-methoxybenzyl)-N-(4-methoxybenzyl)sulfamoyl)benzoic acid]	+++ (60% to 80% inhibition = +++)	20 to 40	+++ (60% to 80% inhibition = +++)	20 to 40	> 80	> 80	60 to 80	20 to 40	20 to 40	> 80	++++ (80% or greater inhibition = ++++)	+ (20% to 40% inhibition = +)	60 to 80	60 to 80	++++ (80% or greater inhibition = ++++)	60 to 80	+++ (60% to 80% inhibition = +++)	–
COc1ccc(CN2C(=O)N(c3ccc(C(=O)O)cc3)C(=O)C2Cc2ccccc2)cc1 (stereo not drawn) [Example 5-98, 4-(4-benzyl-3-(4-methoxybenzyl)-2,5-dioxoimidazolidin-1-yl)benzoic acid]	–	–	++++ (80% or greater inhibition = ++++)	–	–	–	–	–	–	> 80	–	–	–	20 to 40	–	60 to 80	+++ (60% to 80% inhibition = +++)	40 to 60
O=C(O)c1ccc(S(=O)(=O)N(Cc2ccccc2)Cc2cccc(Cl)c2)cc1 [Example 5-84, 4-(N-benzyl-N-(3-chlorobenzyl)sulfamoyl)benzoic acid]	++ (40% to 60% inhibition = ++)	20 to 40	+++ (60% to 80% inhibition = +++)	20 to 40	20 to 40	> 80	20 to 40	20 to 40	60 to 80	> 80	+++ (60% to 80% inhibition = +++)	+ (20% to 40% inhibition = +)	–	40 to 60	+++ (60% to 80% inhibition = +++)	20 to 40	+ (20% to 40% inhibition = +)	–
